Consider one molecule from patent US11572402B2, “Method for promoting diversification of antibody variable region” (Chiome Bioscience Inc., priority 2017, dated 2023).

The subject of the test is hVEGF-A-#33 cell line. Description: Screening for diversification-promoting compounds by FCM (hIgG+_hVEGF-A− population). The test is classed as cell-based, chicken. The conditions noted are these: hVEGF-A-#33 cells expressing human IgG, versus negative control CS(−). The procedure:
Frozen stocks of the hVEGF-A #33 cell line and the hVEGF-A #44 cell line (3.0×10^6 cells) were each awaken with a CS(-) medium, using a 25 cm^2 Flask (Corning, 430639), and were then cultured in a CO2 incubator (SANYO CO2 Incubator MCO-20AIC, 39.5° C., 5% CO2). On the following day, the cells were seeded on a 6-well dish (Nunc, 140675) to a cell density of 1.0×10^4 cells/mL (wherein the cell concentration and the survival rate were measured using CASY cell counter (Nepa Gene)). The cells were cultured in a CS(+) medium, in the presence or absence of a PI3Kα inhibitor ([…]: 10 μM, PI3Kα Inhibitor 2: 500 nM). Moreover, after the cells had been cultured for 2 days, individual samples were subcultured under the same conditions to result in a cell density of 1.0×10^4 cells/mL. Further, after completion of the culture for 3 days, individual samples were subcultured under the same conditions to result in a cell density of 6.0×10^4 cells/mL, and the culture was continued. After completion of the culture for 2 days (Day 7 of the culture), individual samples were centrifuged to remove a supernatant, and the residue was then suspended in a CS(+) medium supplemented with 1 μM FK-506 (hereinafter referred to as a “CS/FK medium”). The suspension was centrifuged again to remove a supernatant. This washing step was carried out repeatedly twice, and individual samples were then suspended in a CS/FK medium supplemented with AF647-labeled hVEGF-A (10 nM) and 2,000-fold diluted Goat Anti-Human IgG-PE. The light was shielded, and the obtained suspension was then reacted at 4° C. for 30 min. After completion of the staining, the reaction mixture was washed with a CS/FK medium twice, and each sample was then suspended in the CS/FK medium. Thereafter, using FACS Aria Fusion (BD), FCM and single cell sorting was carried out. Dead cells were removed using FSC-SSC plot. A plot, in which the vertical axis indicated AF647 (AF647-labeled hVEGF-A) and the longitudinal axis indicated PE (Goat Anti-Human IgG-PE), was developed, and the percentage of PE+(hIgG+)/AF647-(hVEGF-A-) cells was then calculated. In order to make a comparison regarding the number of cells with improved antigen-binding ability according to Affinity Maturation under individual conditions, Affinity Maturation Gate was established according to the following criteria. First, the plot was converted to a contour plot in FCM analysis, and a trapezoid gate having an inclination that was in parallel with the contour of a population in which the most cells were gathered (hereinafter referred to as a “main population”) was established. […] At that time, the vertex of the trapezoid gate was set to be overlapped with the mean value MFI of the main population, and then, a cell population having low antigen-binding ability and a cell population having a low expression level of antibody were set not to enter the gate. The percentage of clones with improved antigen-binding ability was calculated by counting the number of cells existing in this Affinity Maturation Gate and then dividing the obtained value by the total number of the analyzed cells. […]

“Also recorded” adds a separate entry of the source.

`Cc1nc(NC(=O)N2CCC[C@H]2C(N)=O)sc1-c1csc(C(C)(C)C)n1` [A66]: the “percentage of hIgG+_hVEGF-A− cell population (diversification-promoting effect)” value is listed as “increased in comparison to the negative control (CS(−)); also recorded: highest diversification-promoting effects”.
